Data reported in patent US20250170248A1, “SMARCA DEGRADERS AND USES THEREOF” (Kymera Therapeutics, Inc., priority 2021, published 2025).

Legend:
Assay type in all cases: cell-based
[1] = target: T1, SMARCA4 (Homo sapiens, UniProt P51532); assay: SMARCA4 Western blot degradation in MV4-11 cells; conditions: for Dmax: MV4-11, MV4-11 cells, read-out: SMARCA4 MSD MV411 degradation 24 h: average Dmax %; for Dmax / DC50: 24 h; for DC50 / SMARCA4 MSD MV411 degradation 24 h: average Dmax %: MV4-11 cells; for DC50: read-out: SMARCA4 MSD MV411 degradation 24 h: Mean external-Abs DC50
T1 construct: SMARCA2/SMARCA4 protein degradation selectivity in MV4-11 cells; endogenous in cells; host or cells: MV4-11
How it was run: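 24 h compound exposure, MV4-11; RIPA lysates → SDS-PAGE → NC membrane; anti-SMARCA2/BRM, anti-BRG1, β-actin loading control; LI-COR fluorescence read. DC50 and Dmax at 24 h reported as letter bins.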

[2] = target: T2, SMARCA2 (Homo sapiens, UniProt P51531); assay: SMARCA2 Western blot degradation in MV4-11 cells; design: SMARCA2/SMARCA4 protein degradation selectivity in MV4-11 cells; endogenous in cells; host or cells: MV4-11; conditions: for Dmax: MV4-11, MV4-11 cells, read-out: SMARCA2 MSD MV411 degradation 24 h: average Dmax %; for Dmax / DC50 / SMARCA2 MSD MV411 degradation 24 h: average Dmax %: 24 h; for DC50 / Selectivity in MV411 / SMARCA2 MSD MV411 degradation 24 h: average Dmax %: MV4-11 cells; for DC50: read-out: SMARCA2 MSD MV411 degradation 24 h: Mean external-Abs DC50; for Selectivity in MV411: SMARCA2/4 selectivity
[3] = target: T2, SMARCA2; assay: MSD SMARCA2 degradation in A549 cell line; conditions: for Dmax: A549, A549 cells; for Dmax / DC50: 24 h; for DC50 / SMARCA2 MSD A549 degradation 24 h: Average Dmax %: A549 cells; for DC50: read-out: SMARCA2 MSD A549 degradation 24 h: Average external-Abs DC50
How it was run: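 A549 cells treated 24 h with compound, 3-fold series from 1000 nM. Lysates captured on MSD plates and SMARCA2 quantified with anti-SMARCA2 and SULFO-TAG secondary antibodies (electrochemiluminescence). DC50 and Dmax (% degradation at 24 h) reported as letter bins.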

T1 sequence (P51532 whole entry): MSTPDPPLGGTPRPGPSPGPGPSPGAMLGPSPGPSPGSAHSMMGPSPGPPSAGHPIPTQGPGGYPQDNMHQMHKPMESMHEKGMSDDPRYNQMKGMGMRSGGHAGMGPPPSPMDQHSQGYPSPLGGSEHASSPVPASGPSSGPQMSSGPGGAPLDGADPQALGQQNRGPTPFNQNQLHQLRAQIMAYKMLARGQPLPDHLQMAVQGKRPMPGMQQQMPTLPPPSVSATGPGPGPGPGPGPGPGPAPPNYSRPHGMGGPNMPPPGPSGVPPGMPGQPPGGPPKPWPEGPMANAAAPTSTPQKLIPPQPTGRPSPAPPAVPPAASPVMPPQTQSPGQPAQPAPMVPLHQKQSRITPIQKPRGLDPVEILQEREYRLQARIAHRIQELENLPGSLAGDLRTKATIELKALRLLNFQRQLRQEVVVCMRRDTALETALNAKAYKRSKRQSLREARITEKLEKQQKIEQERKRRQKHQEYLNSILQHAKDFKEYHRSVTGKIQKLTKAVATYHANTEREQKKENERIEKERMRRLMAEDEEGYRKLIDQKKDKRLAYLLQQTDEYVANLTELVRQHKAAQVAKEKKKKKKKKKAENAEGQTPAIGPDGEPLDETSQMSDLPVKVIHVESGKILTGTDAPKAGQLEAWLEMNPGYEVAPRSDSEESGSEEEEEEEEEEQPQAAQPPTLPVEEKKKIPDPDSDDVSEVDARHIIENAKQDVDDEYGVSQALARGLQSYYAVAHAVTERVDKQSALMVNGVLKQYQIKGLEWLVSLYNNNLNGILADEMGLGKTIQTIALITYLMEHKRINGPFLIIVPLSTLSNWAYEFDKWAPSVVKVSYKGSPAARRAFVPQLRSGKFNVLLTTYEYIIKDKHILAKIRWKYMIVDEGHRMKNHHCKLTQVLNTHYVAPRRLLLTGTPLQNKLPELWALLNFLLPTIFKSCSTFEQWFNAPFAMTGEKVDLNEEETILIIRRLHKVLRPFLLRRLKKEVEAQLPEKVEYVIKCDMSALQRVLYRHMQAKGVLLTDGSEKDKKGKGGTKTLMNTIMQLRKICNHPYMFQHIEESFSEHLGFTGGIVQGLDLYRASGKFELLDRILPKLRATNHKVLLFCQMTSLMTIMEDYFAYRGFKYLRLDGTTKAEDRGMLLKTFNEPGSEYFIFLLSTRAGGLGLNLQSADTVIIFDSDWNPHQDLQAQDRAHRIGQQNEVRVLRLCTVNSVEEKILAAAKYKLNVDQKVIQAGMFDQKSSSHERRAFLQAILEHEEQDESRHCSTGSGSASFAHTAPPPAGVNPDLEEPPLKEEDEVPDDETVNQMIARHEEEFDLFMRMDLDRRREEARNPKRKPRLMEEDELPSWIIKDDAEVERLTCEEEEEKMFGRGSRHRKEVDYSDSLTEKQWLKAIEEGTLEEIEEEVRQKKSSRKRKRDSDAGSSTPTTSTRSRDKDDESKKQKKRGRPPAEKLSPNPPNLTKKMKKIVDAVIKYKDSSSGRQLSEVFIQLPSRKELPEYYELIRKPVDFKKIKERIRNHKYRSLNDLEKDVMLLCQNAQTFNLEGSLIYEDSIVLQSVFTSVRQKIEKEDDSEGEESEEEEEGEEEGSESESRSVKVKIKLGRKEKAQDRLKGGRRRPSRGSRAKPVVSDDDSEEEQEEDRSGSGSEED
T2 sequence (P51531 whole entry): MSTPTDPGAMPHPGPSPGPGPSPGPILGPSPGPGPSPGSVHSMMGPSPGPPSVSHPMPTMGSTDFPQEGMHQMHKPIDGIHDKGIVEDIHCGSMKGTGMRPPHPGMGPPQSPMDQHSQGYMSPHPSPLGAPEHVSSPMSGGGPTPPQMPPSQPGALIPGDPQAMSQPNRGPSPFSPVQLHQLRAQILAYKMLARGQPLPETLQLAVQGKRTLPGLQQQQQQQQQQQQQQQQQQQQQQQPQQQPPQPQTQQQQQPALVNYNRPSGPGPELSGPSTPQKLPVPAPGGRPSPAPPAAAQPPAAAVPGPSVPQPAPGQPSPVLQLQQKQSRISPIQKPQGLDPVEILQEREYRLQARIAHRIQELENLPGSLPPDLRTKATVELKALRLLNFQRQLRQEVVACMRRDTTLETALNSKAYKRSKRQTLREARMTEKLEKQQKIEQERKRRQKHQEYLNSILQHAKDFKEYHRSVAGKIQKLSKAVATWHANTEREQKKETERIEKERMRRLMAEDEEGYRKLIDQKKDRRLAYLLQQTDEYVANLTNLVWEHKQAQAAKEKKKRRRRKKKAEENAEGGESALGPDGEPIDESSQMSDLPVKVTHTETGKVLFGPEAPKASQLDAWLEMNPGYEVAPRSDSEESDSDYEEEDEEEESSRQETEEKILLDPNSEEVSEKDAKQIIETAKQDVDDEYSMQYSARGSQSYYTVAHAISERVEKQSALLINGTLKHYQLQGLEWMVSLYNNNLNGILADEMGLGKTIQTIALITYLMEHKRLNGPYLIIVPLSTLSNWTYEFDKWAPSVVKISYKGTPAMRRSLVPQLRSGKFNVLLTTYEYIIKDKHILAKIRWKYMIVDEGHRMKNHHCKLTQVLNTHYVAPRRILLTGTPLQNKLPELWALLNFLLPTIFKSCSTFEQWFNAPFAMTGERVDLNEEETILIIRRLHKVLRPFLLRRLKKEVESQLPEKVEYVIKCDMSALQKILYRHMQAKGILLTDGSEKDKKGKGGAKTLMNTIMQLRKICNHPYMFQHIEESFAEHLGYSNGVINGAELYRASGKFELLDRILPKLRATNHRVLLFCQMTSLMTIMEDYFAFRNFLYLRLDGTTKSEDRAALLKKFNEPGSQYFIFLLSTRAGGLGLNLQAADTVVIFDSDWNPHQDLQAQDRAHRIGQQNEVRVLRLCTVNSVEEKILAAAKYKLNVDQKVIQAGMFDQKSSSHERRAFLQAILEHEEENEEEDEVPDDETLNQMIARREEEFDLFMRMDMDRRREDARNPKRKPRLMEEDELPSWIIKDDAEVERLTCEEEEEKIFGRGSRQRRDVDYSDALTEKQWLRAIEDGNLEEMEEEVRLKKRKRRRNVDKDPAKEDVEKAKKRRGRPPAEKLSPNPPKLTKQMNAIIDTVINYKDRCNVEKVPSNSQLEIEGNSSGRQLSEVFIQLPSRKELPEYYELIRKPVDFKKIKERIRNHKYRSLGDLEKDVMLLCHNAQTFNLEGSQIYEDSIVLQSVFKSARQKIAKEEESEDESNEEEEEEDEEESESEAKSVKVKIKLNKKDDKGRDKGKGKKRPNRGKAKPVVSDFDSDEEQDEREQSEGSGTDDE

Structure (SMILES)	Dmax [1] [%]	DC50 [1] [nM]	Dmax [2] [%]	DC50 [2] [nM]	Selectivity in MV411 [2]	Dmax [3] [%]	DC50 [3] [nM]	SMARCA4 MSD MV411 degradation 24 h: average Dmax % [1]	SMARCA2 MSD MV411 degradation 24 h: average Dmax % [2]	SMARCA2 MSD A549 degradation 24 h: Average Dmax % [3]
C#Cc1ccc(CNC(=O)[C@@H]2C[C@@H](O)CN2C(=O)[C@@H](NC(=O)N2CCN(C[C@H]3CC[C@H](N4CCC(N5CCN6c7cc(-c8ccccc8O)nnc7NC[C@H]6C5)CC4)CC3)CC2)C(C)(C)C)cc1 [I-254]	< 50	> 100	50 to 70	10 to 100	B (B (>100-500 fold))	70 to 90	50 to 100			
C#Cc1ccc(CNC(=O)[C@@H]2C[C@@H](O)CN2C(=O)[C@@H](NC(=O)N2CCN(C[C@H]3CC[C@@H](N4CCC(N5CCN6c7cc(-c8ccccc8O)nnc7NC[C@H]6C5)CC4)CC3)CC2)C(C)(C)C)cc1 [I-255]	< 50	> 100	70 to 90	10 to 100	B (B (>100-500 fold))	70 to 90	> 100			
C#Cc1ccc(CNC(=O)[C@@H]2C[C@@H](O)CN2C(=O)[C@@H](NC(=O)N2CCC[C@H](CN3CCC(N4CCC(N5CCN6c7cc(-c8ccccc8O)nnc7NC[C@H]6C5)CC4)CC3)C2)C(C)(C)C)cc1 [I-256]	< 50	> 100	< 50	> 100	D (D (<10 fold))	< 50	> 100			
C#Cc1ccc(CNC(=O)[C@@H]2C[C@@H](O)CN2C(=O)[C@@H](NC(=O)[C@H]2CCC3(CC2)C[C@H](N2CCC(N4CCC(N5CCN6c7cc(-c8ccccc8O)nnc7NC[C@H]6C5)CC4)CC2)C3)C(C)(C)C)c(F)c1 (some centres unmarked) [I-258]		> 100		10 to 100	C (C (10-100 fold))		> 100	D (D (<50% degradation))	C (C (50-70% degradation))	B (B (>70-90% degradation))
C#Cc1ccc([C@H](C)NC(=O)[C@@H]2C[C@@H](O)CN2C(=O)[C@@H](NC(=O)N2CC3(CC(N4CCC(c5cnc(N6CCc7[nH]c8nnc(-c9ccccc9O)cc8c7[C@H]6C)nc5)CC4)C3)C2)C(C)(C)CCO)cc1 [I-259]	< 50	> 100	70 to 90	1 to 10	A (A (>500 fold))	> 90	< 10			
C#Cc1ccc(CNC(=O)[C@@H]2C[C@@H](O)CN2C(=O)[C@@H](NC(=O)[C@H]2CCC3(CC2)C[C@H](N2CCN(c4cnc(N5CCN6c7cc(-c8ccccc8O)nnc7NC[C@H]6C5)nc4)CC24CC4)C3)C(C)(C)C)cc1 (some centres unmarked) [I-266]	50 to 70	> 100	> 90	10 to 100	C (C (10-100 fold))	> 90	50 to 100			
C#Cc1ccc(CNC(=O)[C@@H]2C[C@@H](O)CN2C(=O)[C@@H](NC(=O)[C@H]2CCC3(CC2)C[C@H](N2CCN(c4cnc(N5CCN6c7cc(-c8ccccc8O)nnc7NC[C@H]6C5)nc4)CC24CC4)C3)C(C)(C)C)cc1 (some centres unmarked) [I-267]		> 100		10 to 100	B (B (>100-500 fold))		50 to 100	D (D (<50% degradation))	B (B (>70-90% degradation))	B (B (>70-90% degradation))
C#Cc1ccc(CNC(=O)[C@@H]2C[C@@H](O)CN2C(=O)[C@@H](NC(=O)N2CC3(CC(N4CC(N5CCC(c6cnc(N7CCc8[nH]c9nnc(-c%10ccccc%10O)cc9c8[C@H]7C)nc6)CC5)C4)C3)C2)C(C)(C)C)cc1 [I-268]	50 to 70	> 100	70 to 90	10 to 100	C (C (10-100 fold))	> 90	> 100			
C#Cc1ccc(CNC(=O)[C@@H]2C[C@@H](O)CN2C(=O)[C@@H](NC(=O)N2CCN(Cc3ccc(-c4cnc(N5CCN6c7cc(-c8ccccc8O)nnc7NC[C@H]6C5)nc4)cc3)CC2)C(C)(C)C)cc1 [I-269]	50 to 70	> 100	70 to 90	10 to 100	C (C (10-100 fold))	> 90	10 to 50			
C#Cc1ccc(CNC(=O)[C@@H]2C[C@@H](O)CN2C(=O)[C@@H](NC(=O)N2CC3(CC(N4CCC(c5cnc(N6CCc7[nH]c8nnc(-c9ccccc9O)cc8c7[C@H]6C)nc5)CC4)C3)C2)C(C)(C)C)c(C)c1 [I-270]	> 90	> 100	> 90	1 to 10	C (C (10-100 fold))	> 90	< 10			
CC#Cc1ccc(CNC(=O)[C@@H]2C[C@@H](O)CN2C(=O)[C@@H](NC(=O)N2CC3(CC(N4CCC(c5cnc(N6CCc7[nH]c8nnc(-c9ccccc9O)cc8c7[C@H]6C)nc5)CC4)C3)C2)C(C)(C)C)c(OC)c1 [I-271]	< 50	> 100	70 to 90	10 to 100	C (C (10-100 fold))	> 90	50 to 100			
C#Cc1ccc(CNC(=O)[C@@H]2C[C@@H](O)CN2C(=O)[C@@H](NC(=O)[C@H]2CC3(C2)C[C@H](N2CCN(C(=O)CCN4CCN5c6cc(-c7ccccc7O)nnc6NC[C@H]5C4)CC2)C3)C(C)(C)C)cc1 (some centres unmarked) [I-274]	> 90	10 to 100	> 90	1 to 10	C (C (10-100 fold))	> 90	> 100			
C#Cc1ccc(CNC(=O)[C@@H]2C[C@@H](O)CN2C(=O)[C@@H](NC(=O)[C@H]2CC3(C2)C[C@H](N2CCN(C(=O)CCN4CCN5c6cc(-c7ccccc7O)nnc6NC[C@H]5C4)CC2)C3)C(C)(C)C)cc1 (some centres unmarked) [I-275]		10 to 100		1 to 10	C (C (10-100 fold))		> 100			
C#Cc1ccc(CNC(=O)[C@@H]2C[C@@H](O)CN2C(=O)[C@@H](NC(=O)N2CC3(CC(c4cnc(N5CCC(N6CCN7c8cc(-c9ccccc9O)nnc8NC[C@H]7C6)CC5)nc4)C3)C2)C(C)(C)C)cc1 [I-276]	> 90	10 to 100	> 90	1 to 10	C (C (10-100 fold))	> 90	< 10			
C#Cc1ccc(CNC(=O)[C@@H]2C[C@@H](O)CN2C(=O)[C@@H](NC(=O)c2ccc(N3CCC(N4CCC(N5CCN6c7cc(-c8ccccc8O)nnc7NC[C@H]6C5)CC4)CC3)cc2)C(C)(C)C)cc1 [I-277]	70 to 90	10 to 100	> 90	1 to 10	C (C (10-100 fold))	> 90	< 10			
C#Cc1cc(O)c(CNC(=O)[C@@H]2C[C@@H](O)CN2C(=O)[C@@H](NC(=O)N2CC3(CC(N4CCC(c5cnc(N6CCc7[nH]c8nnc(-c9ccccc9O)cc8c7[C@H]6C)nc5)CC4)C3)C2)C(C)(C)C)c(Cl)c1 [I-281]	< 50	> 100	< 50	> 100	D (D (<10 fold))	< 50	> 100			
C#Cc1ccc([C@H](C)NC(=O)[C@@H]2C[C@@H](O)CN2C(=O)[C@@H](NC(=O)N2CC3(CC(N4CCC(c5cnc(N6CCc7[nH]c8nnc(-c9ccccc9O)cc8c7[C@H]6C)nc5)CC4)C3)C2)C(C)(C)C)c(O)c1 [I-282]	70 to 90	> 100	70 to 90	1 to 10	C (C (10-100 fold))	> 90	< 10			
CC(C)C(C(=O)N1C[C@H](O)C[C@H]1C(=O)N[C@@H](C)C#Cc1ccccc1)c1cc(OCCN2CCC(N3CCC(N4CCC(CN5CCN6c7cc(-c8ccccc8O)nnc7NC[C@H]6C5)CC4)CC3)CC2)no1 (some centres unmarked) [I-283]	< 50	> 100	< 50	> 100	D (D (<10 fold))	70 to 90	> 100			
C#Cc1ccc(CNC(=O)[C@@H]2C[C@@H](O)CN2C(=O)[C@@H](NC(=O)N2CCN(C3CC4(CCN(c5cnc(N6CCN7c8cc(-c9ccccc9O)nnc8NC[C@H]7C6)nc5)CC4)C3)CC2)C(C)(C)C)cc1 [I-284]	50 to 70	> 100	> 90	1 to 10	C (C (10-100 fold))	> 90	10 to 50			
C#Cc1ccc(CNC(=O)[C@@H]2C[C@@H](O)CN2C(=O)[C@@H](NC(=O)N2CC3(CC(N4CCC(c5cnc(N6CCc7[nH]c8nnc(-c9ccccc9O)cc8c7[C@H]6C)nc5)CC4)C3)C2)C(C)(C)CCO)cc1 [I-288]	70 to 90	10 to 100	> 90	1 to 10	C (C (10-100 fold))	> 90	< 10			
